Counter-ions that a name gives are not always drawn. Like-named read-outs stand apart in the source and are kept apart here. Square brackets hold non-standard residues; d marks the D form. Peptide text beside a SMILES is read from it. 1Nal = N[C@@H](Cc1cccc2ccccc12)C(=O)O; Dmt = Cc1cc(O)cc(C)c1C[C@H](N)C(=O)O
Tests used:
[1] = tested on: mice; conditions: sc, ref [27]; cited from earlier work
[2] = tested on: KOP receptor; conditions: inhibition of forskolin-stimulated cAMP formation, HEK cells stably expressing KOP receptor; ref Cai et al. [18]; cited from earlier work
[3] = tested on: male Sprague–Dawley rats; test: Tolerability / neuro-excitatory clinical signs after icv dosing
[4] = tested on: MOP receptor; conditions: inhibition of forskolin-stimulated cAMP formation, HEK cells stably expressing MOP receptor; ref Cai et al. [18]; cited from earlier work
[5] = tested on: MOP receptor; conditions: guinea-pig small intestinal myenteric plexus muscle preparation; ref [18]; cited from earlier work
[6] = tested on: DOP receptor; conditions: inhibition of forskolin-stimulated cAMP formation, HEK cells stably expressing DOP receptor, cited from earlier work
[7] = tested on: male Sprague–Dawley rats; test: Respiratory function by whole body plethysmography, icv dosing; type: in vivo, rat
Protocol: After acclimatisation for 30–60 min, respiratory parameters were recorded for 45 min pre-dosing (three 15 min cycles) and for 2 h post-dosing (eight 15 min cycles). In each cycle, rats breathed normal air for 1 min, followed by a hypercapnic gas mixture (8% CO2, 21% O2 and 71% N2) for 5 min and then a 9 min recovery period breathing normal air. Respiratory parameters recorded by the blinded tester (M.Z.I.) included minute ventilation (MV), respiratory frequency (RF) and tidal volume (Tv) using the BioSystem XA software. The baseline was calculated as the mean difference in MV (ΔMV), RF (ΔRF) and Tv (ΔTv) during the pre-dosing exposure to normal air and the hypercapnic gas mixture.

[8] = tested on: MOP receptor; conditions: in vitro; ref [18]; cited from earlier work
[9] = Metabolic stability using rat liver microsomes
[10] = tested on: male Sprague–Dawley rats; test: Inhibition of castor oil-induced diarrhoea, icv dosing; type: in vivo, rat; conditions: for Mean (± SEM) %AUC of % rats with diarrhoea (% of vehicle control): 8 h, vehicle set at 100%; for Cumulative stool weight-area under the curve (CSW-AUC): at 4 h, vehicle 18.3 (± 1.1) g.h
Protocol: After an overnight fast (16 h), the pre-dosing stool consistency of individual rats was recorded. […] The weight and consistency of faeces were recorded pre-dose and hourly for 8 h post-dosing for individual animals. The scoring criteria for faeces consistency were as follows: 0 = normal faeces, 1 = well-shaped wet faeces, 2 = shapeless faeces, 3 = shapeless faeces with large amounts of liquid. A score of ≥ 2 for both weight and consistency was defined as diarrhoea.
(§1) Data are presented as mean ± standard error of mean (SEM). One-way analysis of variance was used for analysing the following data: ΔLatency-AUC of warm water tail flick data (Fig. 2B, D); % Small intestinal transit of charcoal meal data and % change of transit relative to vehicle (Fig. 3A, B); AUC of % rats with diarrhoea (% of vehicle control) (Fig. 4B), Cumulative stool weight difference from vehicle (4 h) (Fig. 4D); ΔMV-AUC, ΔRF-AUC and ΔTv-AUC (Fig. 6A–F). Two-way analysis of variance was used for the following data: MV, RF and Tv data for 2 h WPB test (Fig. 5A–F). The analyses were implemented in GraphPad Prism v9.0.0 (GraphPad Software, Inc., La Jolla, CA USA). Dunnett's multiple comparison test was used for post hoc analysis of all the data. For individual animals in the tail flick test, the increase in tail flick latency above baseline (ΔLatency) was calculated for every assessment time point, and the areas under the ΔLatency versus time curve (AUC) values were estimated using trapezoidal integration as using GraphPad™ Prism v9.0.0. For the castor oil-induced diarrhoea test, the percentage of rats with diarrhoea (%AD) was determined for each time point and plotted against time for individual animals. The areas under the curve (%AD-AUC) values were calculated using GraphPad™ Prism v9.0.0. A value of p ≤ 0.05 was the statistical significance criterion. For one-way ANOVA, F values are expressed as Fdf of treatment, residual. For two-way ANOVA, F values are expressed as Fdf of treatment, time, interaction/residual.

[11] = target: DOP receptor; conditions: mean ± SEM; ref [18]; cited from earlier work
Source text: (§2) By comparison, CYX-5 is a truncated analogue of EM-2 (H-Dmt-Pro-Nal-NH2; Nal: 3-(1-naphthyl)-L-alanine) (Fig. 1). In vitro, CYX-5, like CYX-6, was a G-protein biassed ligand at MOP, DOP and KOP receptors. […] In the forskolin-stimulated cAMP assay in HEK-cells expressing murine MOP, D ...

[12] = target: MOP receptor; conditions: mean ± SEM; ref [18]; cited from earlier work
Source text: as §2

[13] = tested on: male Sprague–Dawley rats; test: GI motility, charcoal meal test, icv dosing; type: in vivo, rat; conditions: for Mean (± SEM) % small intestinal transit (%SIT): n = 6, vehicle 77.3 (± 1.9) %
Protocol: One hour later, the rats were euthanised and the intestine was collected for measurement of the following: (i) the distance from the pylorus to the front edge of the charcoal meal; (ii) the distance between the pylorus and the distal edge of the ileum. The intestinal transit index was determined by dividing measurement (i) by measurement (ii).

[14] = tested on: KOP receptor; conditions: in vitro; ref [18]; cited from earlier work
[15] = tested on: DOP receptor; conditions: in vitro; ref [18]; cited from earlier work
[16] = tested on: male Sprague–Dawley rats; test: Warm-water tail flick test (antinociception), icv dosing; type: in vivo, rat; conditions: for Mean (± SEM) peak tail flick latency: baseline latency 2.0–3.5 s; for Mean (± SEM) ΔLatency-AUC: vehicle 0.8 (± 0.3) s.h
Protocol: To assess a role for opioid receptors in mediating antinociception, rats were dosed with naloxone (10 mg/kg; sc) 10 min prior icv dosing with CYX-5 at the highest dose tolerated (20 nmol).
as §1

[17] = tested on: male Sprague–Dawley rats; conditions: cited from earlier work
[18] = tested on: male Sprague–Dawley rats; conditions: cited from earlier work; for Antinociception, warm water tail flick test: icv, male Sprague–Dawley rats, ref Imam et al. [19]
[19] = tested on: male Sprague–Dawley rats; conditions: cited from earlier work; remark: listed apart in the source
[20] = tested on: male Sprague–Dawley rats; conditions: cited from earlier work; remark: listed apart in the source
[21] = icv, male Sprague–Dawley rats, √/X not defined
[22] = icv, male Sprague–Dawley rats, ref Imam et al. [19], Kuo et al. [23]
[23] = icv 100 nmol, n = 6, biphasic profile, data re-used, ref [19]
[24] = icv 100 nmol, data re-used, ref [19]

Molecule: CN1CC[C@]23c4c5ccc(O)c4O[C@H]2C(=O)CC[C@@]3(OCCCc2ccccc2)[C@H]1C5 [14-O-phenylpropyloxymorphone]
- Fold less potent for inhibition of GI transit compared with antinociception [1]: 2.4 fold

Molecule: Cc1cc(O)cc(C)c1C[C@H](N)C(=O)N1CCC[C@H]1C(=O)N[C@@H](Cc1cccc2ccccc12)C(N)=O [CYX-5, H-Dmt-Pro-Nal-NH2] (H-[Dmt]-Pro-[1Nal]-NH2)
- In vitro agonist or antagonist activity, KOP receptor [2]: Agonist^a
- Duration of postural abnormalities (flattened torso, splayed legs, ataxia) ([3]; icv 20 nmol): up to 90 min
- Rats with mild, intermittent, transient clinical signs of neuroexcitation ([3]; icv 20 nmol): ~ 50%
- Maximum tolerated dose, icv ([3]; pilot study, rats): 20 nmol
- Side effects at 30 nmol icv ([3]; preliminary experiment, icv 30 nmol, convulsions, barrel roll, wet-dog shakes, excessive alertness): pronounced neuro-excitatory side effects
- In vitro agonist or antagonist activity, MOP receptor [4]: Agonist^a
- MOP receptor agonism ex vivo [5]: potent MOP receptor agonism
- In vitro agonist or antagonist activity, DOP receptor ([6]; ref Cai et al. [18]): Antagonist^a
- Effect on minute ventilation ([7]; icv 20 nmol, n = 6, hypercapnic conditions (8% CO2), awake rats): significant stimulatory effect
- Effect on tidal volume ([7]; icv 20 nmol, n = 6, hypercapnic gas mixture): significant increase
- Effect on respiratory frequency ([7]; icv 20 nmol, n = 6, normal air and hypercapnic gas exposure): insignificant
- Respiratory function, stimulation of minute ventilation ([7]; icv, hypercapnic conditions, awake freely moving rats, √/X not defined): √
- Recruitment of β-arrestin2 at MOP receptor [8]: lack of recruitment
- half-life [9]: 57.6 min
- Mean (± SEM) %AUC of % rats with diarrhoea (% of vehicle control) ([10]; icv 3 nmol, n = 7): 72.6 (± 10.8) %AD.h
- Cumulative stool weight-area under the curve (CSW-AUC) ([10]; icv 3 nmol): 11.7 (± 1.5) g.h
- Mean (± SEM) %AUC of % rats with diarrhoea (% of vehicle control) ([10]; icv 10 nmol, n = 6): 78.5 (± 7.6) %AD.h
- Cumulative stool weight-area under the curve (CSW-AUC) ([10]; icv 10 nmol): 13.4 (± 4.1) g.h
- Mean (± SEM) %AUC of % rats with diarrhoea (% of vehicle control) ([10]; icv 20 nmol, n = 6): 68.4 (± 2.6) %AD.h
- Cumulative stool weight-area under the curve (CSW-AUC) ([10]; icv 20 nmol): 2.5 (± 0.9) g.h
- Time to develop diarrhoea in all animals ([10]; icv 3, 10 and 20 nmol, oral castor oil 2.5 ml, vehicle 3 h): 5 h
- Ki [11]: 121 ± 10.2 nM
- Ki [12]: 0.7 ± 0.08 nM
- Mean (± SEM) % small intestinal transit (%SIT) ([13]; icv 3 nmol): 68.7 (± 2.7) %
- Mean (± SEM) % small intestinal transit (%SIT) ([13]; icv 10 nmol): 64.8 (± 6.8) %
- Mean (± SEM) % small intestinal transit (%SIT) ([13]; icv 20 nmol): 64.4 (± 3.4) %
- Constipation, inhibition of GI motility [13, 21]: √
- Recruitment of β-arrestin2 at KOP receptor [14]: lack of recruitment
- Recruitment of β-arrestin2 at DOP receptor [15]: lack of recruitment
- Mean (± SEM) peak tail flick latency ([16]; icv 3 nmol, n = 6, rats): 5.2 (± 0.6) s
- Mean (± SEM) ΔLatency-AUC ([16]; icv 3 nmol, n = 6): 3.2 (± 0.9) s.h
- Mean (± SEM) peak tail flick latency ([16]; icv 10 nmol, n = 6, rats): 4.0 (± 0.3) s
- Mean (± SEM) ΔLatency-AUC ([16]; icv 10 nmol, n = 6): 2.1 (± 0.5) s.h
- Antinociception (tail flick), in words ([16]; icv 20 nmol, highest dose tolerated): moderate antinociception
- Mean (± SEM) peak tail flick latency ([16]; icv 20 nmol, n = 7, rats): 5.5 (± 0.5) s
- Mean (± SEM) ΔLatency-AUC ([16]; icv 20 nmol, n = 7, significantly different from vehicle): 4.8 (± 0.6) s.h
- Mean time to peak effect (tail flick) ([16]; icv 3, 10 and 20 nmol, post-dose): 1 h
- Antinociception, warm water tail flick test [16, 21]: √
- Effect of naloxone pre-treatment on antinociception ([16]; naloxone 10 mg/kg sc 10 min prior to icv 20 nmol): completely attenuated

Molecule: CN1CC[C@]23c4c5ccc(O)c4O[C@H]2[C@@H](O)C=C[C@H]3[C@H]1C5 [morphine, morphine hydrochloride]
- Time by which animals developed diarrhoea ([17]; icv 100 nmol, oral castor oil, data re-used, ref [19]): 7 h
- Constipation, inhibition of castor oil-induced diarrhoea [17, 22]: √^b,d
- First antinociceptive peak tail flick latency, mean (± SEM) [18, 23]: 8.9 (± 0.5) s
- Second antinociceptive peak tail flick latency, mean (± SEM) [18, 23]: 10.0 (± 0.0) s
- Antinociception (tail flick), in words [18, 24]: pronounced antinociception
- Mean time to first peak effect (tail flick) [18, 24]: 0.75 h
- Mean time to second peak effect (tail flick) [18, 24]: 1.5 h
- Antinociception, warm water tail flick test ([18]; Kuo et al. [23]): √^b,d
- In vitro agonist or antagonist activity, DOP receptor ([6]; ref Kuo et al. [36]): Agonist^c
- Effect on respiratory frequency ([19]; icv 100 nmol, n = 6, hypercapnic gas mixture, relative to vehicle, data re-used, ref [19]): reduced respiratory frequency significantly
- Effect on minute ventilation ([19]; icv 100 nmol, n = 6, hypercapnic gas mixture, time of peak effect, data re-used, ref [19]): reduced minute ventilation
- Respiratory function, depression of minute ventilation ([19]; icv, hypercapnic conditions, awake rats, ref Imam et al. [19], Kuo et al. [23]): √^b,d
- Mean (± SEM) % small intestinal transit (%SIT) ([20]; icv 100 nmol, n = 12, data re-used, ref [19]): 22.0 (± 3.4) %
- Constipation, inhibition of GI motility [20, 22]: √^b,d

Molecule: H-Dmt-Pro-Tmp-Tmp-NH2 [CYX-6]
- In vitro agonist or antagonist activity, KOP receptor [2]: Antagonist^a
- In vitro agonist or antagonist activity, MOP receptor [4]: Agonist^a
- Antinociception, warm water tail flick test [18]: √^b
- In vitro agonist or antagonist activity, DOP receptor ([6]; ref Cai et al. [18]): Antagonist^a
- Respiratory function, stimulation of minute ventilation ([19]; icv, hypercapnic conditions, awake rats, ref Imam et al. [19]): √^b
